In paper PMC10861560, “Exploiting epigenetic targets to overcome taxane resistance in prostate cancer” (Cell Death & Disease, 2024):

Biological target: T1, ABCB1 (MDR1) (Homo sapiens, UniProt P08183)
T1 construct: endogenous full-length protein in intact Du145-DtxR cells, detected by western blot after heat shock
Assay: cellular thermal shift assay (CETSA), western blot
Type: cell-based
Conditions: 5 µM, intact Du145-DtxR cells, 1 h at 37 °C, heat shock 44-52 °C; positive control

T1 sequence (P08183 whole entry): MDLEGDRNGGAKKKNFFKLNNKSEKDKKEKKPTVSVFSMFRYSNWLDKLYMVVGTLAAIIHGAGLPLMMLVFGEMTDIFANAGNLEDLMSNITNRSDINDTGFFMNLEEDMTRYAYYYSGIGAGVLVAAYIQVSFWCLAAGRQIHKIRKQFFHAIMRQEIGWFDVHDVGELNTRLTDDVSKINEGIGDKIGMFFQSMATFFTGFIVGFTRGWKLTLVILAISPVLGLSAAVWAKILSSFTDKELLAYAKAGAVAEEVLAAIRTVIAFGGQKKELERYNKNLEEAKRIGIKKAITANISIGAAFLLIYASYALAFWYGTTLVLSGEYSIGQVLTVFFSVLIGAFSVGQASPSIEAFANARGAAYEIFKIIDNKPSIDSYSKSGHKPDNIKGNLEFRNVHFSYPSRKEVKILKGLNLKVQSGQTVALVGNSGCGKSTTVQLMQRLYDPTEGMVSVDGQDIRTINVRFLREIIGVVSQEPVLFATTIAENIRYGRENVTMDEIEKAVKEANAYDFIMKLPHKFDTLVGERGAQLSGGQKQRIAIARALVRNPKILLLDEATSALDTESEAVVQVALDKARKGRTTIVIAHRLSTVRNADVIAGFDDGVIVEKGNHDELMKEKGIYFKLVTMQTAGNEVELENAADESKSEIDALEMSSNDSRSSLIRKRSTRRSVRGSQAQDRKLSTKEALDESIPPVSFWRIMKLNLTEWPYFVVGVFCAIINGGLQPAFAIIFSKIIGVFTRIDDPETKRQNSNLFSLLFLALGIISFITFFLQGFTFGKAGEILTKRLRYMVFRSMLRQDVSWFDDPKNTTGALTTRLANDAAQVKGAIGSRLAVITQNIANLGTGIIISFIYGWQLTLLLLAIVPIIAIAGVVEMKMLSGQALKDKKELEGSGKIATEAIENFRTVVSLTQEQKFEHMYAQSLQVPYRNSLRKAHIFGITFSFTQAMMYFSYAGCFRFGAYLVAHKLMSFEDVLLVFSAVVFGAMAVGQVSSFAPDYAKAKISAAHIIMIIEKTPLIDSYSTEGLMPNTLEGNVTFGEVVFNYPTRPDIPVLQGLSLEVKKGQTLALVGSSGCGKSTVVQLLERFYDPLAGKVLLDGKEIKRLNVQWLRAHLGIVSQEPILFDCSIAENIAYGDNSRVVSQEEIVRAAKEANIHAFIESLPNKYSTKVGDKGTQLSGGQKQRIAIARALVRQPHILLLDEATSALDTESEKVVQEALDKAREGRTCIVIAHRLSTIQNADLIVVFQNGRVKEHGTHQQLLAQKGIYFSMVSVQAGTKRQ

For `O[C@@H](COc1cccc2ncccc12)CN1CCN([C@@H]2c3ccccc3[C@@H]3[C@H](c4ccccc42)C3(F)F)CC1` [Zosuquidar], the “cellular thermal shift assay (CETSA), western blot” value was “it showed an ABCB1-binding compared to DMSO (Fig. 3H)”.
